This experiment deals with IL-1β secretion, THP-1 cells. As to the kind of experiment: IL-1β secretion assay in PMA-differentiated THP-1 cells stimulated with LPS and nigericin (ELISA readout). The experiment is classed as cell-based. As to conditions: Homo sapiens, THP-1, inhibition of IL-1β secretion, 25 ng/mL LPS then nigericin. The procedure, abridged: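 THP-1 cells differentiated with 5 ng/mL PMA for 40 h, primed in serum-free medium with 25 ng/mL LPS for 2 h, then compound (0.5% DMSO) for 1 h before nigericin for 2 h at 37°C. Supernatant IL-1β quantified by ELISA; normalized to high (LPS + 5 µM nigericin) and low (LPS only) controls.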

The values that follow come from patent publication US20230357162A1, “COMPOUNDS, COMPOSITIONS AND METHODS” (Denali Therapeutics Inc., priority 2020, published 2023).

`CC(C)c1nn(CC(=O)NCC2CCC2)c(=O)c2ccc(Br)cc12` [Example 127, 2-(6-bromo-1-oxo-4-propan-2-ylphthalazin-2-yl)-N-(cyclobutylmethyl)acetamide]: the IC50 is less than 10000 nM (class column of Table 3) and 1050 nM (numeric column of Table 3).
In the case of `CC(C)c1nn(CC(=O)NCc2ccnn2C)c(=O)c2ccc(Br)cc12` [Example 128, 2-(6-bromo-1-oxo-4-propan-2-ylphthalazin-2-yl)-N-[(2-methylpyrazol-3-yl)methyl]acetamide], the IC50 was less than 10000 nM (class column of Table 3) and 5260 nM (numeric column of Table 3).
As for `CC(C)c1nn(CC(=O)NCc2ccccc2)c(=O)c2ccc(Br)cc12` [Example 129, N-benzyl-2-(6-bromo-1-oxo-4-propan-2-ylphthalazin-2-yl)acetamide], the IC50 is, setting by setting: (class column of Table 3) less than 10000 nM; (numeric column of Table 3) 20100 nM.
In turn, `CC(C)c1nn(CC(=O)NCC2CCCO2)c(=O)c2ccc(Br)cc12` (centres unmarked) [Example 130, 2-(6-bromo-1-oxo-4-propan-2-ylphthalazin-2-yl)-N-(oxolan-2-ylmethyl)acetamide] displayed an IC50 (class column of Table 3) of less than 10000 nM and an IC50 (numeric column of Table 3) of 2920 nM.
Turning to `O=C(Cn1nc(C(F)(F)F)c2cc(Br)ccc2c1=O)Nc1ncncc1F` [Example 131, 2-[6-bromo-1-oxo-4-(trifluoromethyl)phthalazin-2-yl]-N-(5-fluoropyrimidin-4-yl)acetamide], the 50% inhibitory concentration (IC50) was less than 10000 nM (class column of Table 3) and 1270 nM (numeric column of Table 3).
As for `O=C(Cn1nc(C(F)(F)F)c2ccc(Br)cc2c1=O)Nc1ncncc1F` [Example 132, 2-[7-bromo-1-oxo-4-(trifluoromethyl)phthalazin-2-yl]-N-(5-fluoropyrimidin-4-yl)acetamide], the 50% inhibitory concentration (IC50) was greater than 15000 nM (class column of Table 3) and greater than 50000 nM (numeric column of Table 3).
For `N#Cc1cnc(NC(=O)Cn2nc(C(F)F)c3c(F)c(Br)ccc3c2=O)nc1` [Example 133], the IC50 was less than 10000 nM (class column of Table 3) and 109 nM (numeric column of Table 3).
For `O=C(Cn1nc(C(F)F)c2cc(Br)ccc2c1=O)Nc1ncc(Cl)cc1F` [Example 134], the concentration for half-maximal inhibition (IC50) is less than 10000 nM (class column of Table 3) and 1210 nM (numeric column of Table 3).
Consider `O=C(Cn1nc(C(F)F)c2cc(Br)ccc2c1=O)Nc1ncc(Cl)cn1` [Example 135], for which the half-maximal inhibitory concentration (IC50) is less than 10000 nM (class column of Table 3) and 424 nM (numeric column of Table 3).
For `N#Cc1cnc(NC(=O)Cn2nc(C(F)F)c3cc(Br)ccc3c2=O)nc1` [Example 136] the same measures were less than 10000 nM and 181 nM.
Take `O=C(Cn1nc(OCF)c2cc(Br)ccc2c1=O)Nc1ncc(F)cn1` [Example 137, 2-[6-bromo-1-oxo-4-(fluoromethoxy)phthalazin-2-yl]-N-(5-fluoropyrimidin-2-yl)acetamide]: the half-maximal inhibitory concentration (IC50) is, setting by setting: (class column of Table 3) less than 10000 nM; (numeric column of Table 3) 186 nM.
Take `O=C(Cn1nc(OCC(F)(F)F)c2cc(Br)ccc2c1=O)Nc1ncc(F)cn1` [Example 138, 2-[6-bromo-1-oxo-4-(2,2,2-trifluoroethoxy)phthalazin-2-yl]-N-(5-fluoropyrimidin-2-yl)acetamide]: the IC50 is 10000 to 15000 nM (class column of Table 3) and 11100 nM (numeric column of Table 3).
Regarding `O=C(Cn1nc(C(F)CF)c2cc(Br)ccc2c1=O)Nc1ncc(F)cn1` (centres unmarked) [Example 139, 2-[6-bromo-4-(1,2-difluoroethyl)-1-oxophthalazin-2-yl]-N-(5-fluoropyrimidin-2-yl)acetamide], the IC50 is less than 10000 nM (class column of Table 3) and 318 nM (numeric column of Table 3).
Turning to `COc1nn(CC(=O)Nc2ncc(F)cn2)c(=O)c2ccc(Br)c(F)c12` [Example 140, 2-(6-bromo-5-fluoro-4-methoxy-1-oxophthalazin-2-yl)-N-(5-fluoropyrimidin-2-yl)acetamide], the IC50 (class column of Table 3) is less than 10000 nM and half-maximal inhibition (numeric column of Table 3) (IC50) required 87 nM.
In turn, `COc1c(Br)ccc2c(=O)n(CC(=O)Nc3ncc(F)cn3)nc(Cl)c12` [Example 141, 2-(6-bromo-4-chloro-5-methoxy-1-oxophthalazin-2-yl)-N-(5-fluoropyrimidin-2-yl)acetamide] returned an IC50 (class column of Table 3) of less than 10000 nM and an IC50 (numeric column of Table 3) of 1200 nM.
For `O=C(Cn1nc(CF)c2cc(Br)ccc2c1=O)Nc1ncc(F)cn1` [Example 142, 2-[6-bromo-4-(fluoromethyl)-1-oxophthalazin-2-yl]-N-(5-fluoropyrimidin-2-yl)acetamide] the same measures were less than 10000 nM and 91 nM.
For the molecule `O=C(Cn1nc(CF)c2ccc(Br)cc2c1=O)Nc1ncc(F)cn1` [Example 143, 2-[7-bromo-4-(fluoromethyl)-1-oxophthalazin-2-yl]-N-(5-fluoropyrimidin-2-yl)acetamide], the IC50 runs as follows: (class column of Table 3) less than 10000 nM; (numeric column of Table 3) 2470 nM.
Take `CC(F)c1nn(CC(=O)Nc2ncc(F)cn2)c(=O)c2ccc(Br)c(F)c12` (centres unmarked) [Example 144, 2-[6-bromo-5-fluoro-4-(1-fluoroethyl)-1-oxophthalazin-2-yl]-N-(5-fluoropyrimidin-2-yl)acetamide]: the IC50 was less than 10000 nM (class column of Table 3) and 191 nM (numeric column of Table 3).
As to `Cc1nn(CC(=O)Nc2ncc(F)cn2)c(=O)c2ccc(Br)c(F)c12` [Example 145], the IC50 was less than 10000 nM (class column of Table 3) and 174 nM (numeric column of Table 3).
Regarding `COc1nn(CC(=O)Nc2ncc(F)cn2)c(=O)c2ccc(C(F)(F)F)cc12` [Example 146, N-(5-fluoropyrimidin-2-yl)-2-[4-methoxy-1-oxo-6-(trifluoromethyl)phthalazin-2-yl]acetamide], the IC50 was less than 10000 nM (class column of Table 3) and 461 nM (numeric column of Table 3).
In the case of `O=C(Cn1nc(CF)c2cc(C(F)(F)F)ccc2c1=O)Nc1ncc(F)cn1` [Example 147, 2-[4-(fluoromethyl)-1-oxo-6-(trifluoromethyl)phthalazin-2-yl]-N-(5-fluoropyrimidin-2-yl)acetamide], the half-inhibitory concentration (IC50) is, setting by setting: (class column of Table 3) less than 10000 nM; (numeric column of Table 3) 279 nM.
In the case of `O=C(Cn1nc(CF)c2c(F)c(Br)ccc2c1=O)Nc1ncc(F)cn1` [Example 148, 2-[6-bromo-5-fluoro-4-(fluoromethyl)-1-oxophthalazin-2-yl]-N-(5-fluoropyrimidin-2-yl)acetamide], the IC50 is, setting by setting: (class column of Table 3) less than 10000 nM; (numeric column of Table 3) 97 nM.
For `CSc1nn(CC(=O)Nc2ncc(F)cn2)c(=O)c2ccc(Br)cc12` [Example 149, 2-(6-bromo-4-methylsulfanyl-1-oxophthalazin-2-yl)-N-(5-fluoropyrimidin-2-yl)acetamide], the IC50 was less than 10000 nM (class column of Table 3) and 782 nM (numeric column of Table 3).
`O=C(Cn1nc(OC2CC2)c2cc(Br)ccc2c1=O)Nc1ncc(F)cn1` [Example 150, 2-(6-bromo-4-cyclopropyloxy-1-oxophthalazin-2-yl)-N-(5-fluoropyrimidin-2-yl)acetamide] yielded a 50% inhibitory concentration (IC50) (class column of Table 3) of less than 10000 nM and an IC50 (numeric column of Table 3) of 127 nM.
Turning to `N#Cc1cnc(NC(=O)Cn2nc(OC3CC3)c3cc(Br)ccc3c2=O)c(F)c1` [Example 151], the IC50 is less than 10000 nM (class column of Table 3) and 491 nM (numeric column of Table 3).
On the same counts, the results for `Cc1cnc(NC(=O)Cn2nc(OC3CC3)c3cc(Br)ccc3c2=O)nc1` [Example 152] are less than 10000 nM and 173 nM.
As for `O=C(Cn1nc(OC2CCC2)c2cc(Br)ccc2c1=O)Nc1ncc(F)cn1` [Example 153, 2-(6-bromo-4-cyclobutyloxy-1-oxophthalazin-2-yl)-N-(5-fluoropyrimidin-2-yl)acetamide], the IC50 runs as follows: (class column of Table 3) less than 10000 nM; (numeric column of Table 3) 147 nM.
On the same counts, the results for `CCOc1nn(CC(=O)Nc2ncc(F)cn2)c(=O)c2ccc(Br)cc12` [Example 154, 2-(6-bromo-4-ethoxy-1-oxophthalazin-2-yl)-N-(5-fluoropyrimidin-2-yl)acetamide] are less than 10000 nM and 680 nM.
As for `CC(C)Oc1nn(CC(=O)Nc2ncc(F)cn2)c(=O)c2ccc(Br)cc12` [Example 155, 2-(6-bromo-1-oxo-4-propan-2-yloxyphthalazin-2-yl)-N-(5-fluoropyrimidin-2-yl)acetamide], the 50% inhibitory concentration (IC50) is less than 10000 nM (class column of Table 3) and 5950 nM (numeric column of Table 3).
On to `CC1(C)CC(Oc2nn(CC(=O)Nc3ncc(F)cn3)c(=O)c3ccc(Br)cc23)C1` [Example 156, 2-[6-bromo-4-(3,3-dimethylcyclobutoxy)-1-oxo-phthalazin-2-yl]-N-(5-fluoropyrimidin-2-yl)acetamide], for which the IC50 runs as follows: (class column of Table 3) less than 10000 nM; (numeric column of Table 3) 70 nM.
Take `C[C@H]1C[C@@H](Oc2nn(CC(=O)Nc3ncc(F)cn3)c(=O)c3ccc(Br)cc23)C1` [Example 157, 2-[6-bromo-4-(3-cis-methylcyclobutoxy)-1-oxo-phthalazin-2-yl]-N-(5-fluoropyrimidin-2-yl)acetamide]: the concentration for half-maximal inhibition (IC50) runs as follows: (class column of Table 3) less than 10000 nM; (numeric column of Table 3) 139 nM.
Consider `C[C@H]1C[C@H](Oc2nn(CC(=O)Nc3ncc(F)cn3)c(=O)c3ccc(Br)cc23)C1` [Example 158, 2-[6-bromo-4-(3-trans-methylcyclobutoxy)-1-oxo-phthalazin-2-yl]-N-(5-fluoropyrimidin-2-yl)acetamide], for which the 50% inhibitory concentration (IC50) by setting is: (class column of Table 3) less than 10000 nM; (numeric column of Table 3) 309 nM.
Regarding `CCN1CCOCC(NC(=O)Cn2nc(C(C)C)c3cc(Br)ccc3c2=O)C1` (centres unmarked) [Example 159, 2-(6-bromo-1-oxo-4-propan-2-ylphthalazin-2-yl)-N-(4-ethyl-1,4-oxazepan-6-yl)acetamide], the IC50 (class column of Table 3) was less than 10000 nM and the IC50 (numeric column of Table 3) is 4760 nM.
For `CO[C@H]1C[C@H](Oc2nn(CC(=O)Nc3ncc(F)cn3)c(=O)c3ccc(Br)cc23)C1` [Example 160], the IC50 was less than 10000 nM (class column of Table 3) and 1320 nM (numeric column of Table 3).
Consider `O=C(Cn1nc(OC2COC2)c2cc(Br)ccc2c1=O)Nc1ncc(F)cn1` [Example 161], for which the IC50 is, setting by setting: (class column of Table 3) less than 10000 nM; (numeric column of Table 3) 3630 nM.
Consider `CC(F)COc1nn(CC(=O)Nc2ncc(F)cn2)c(=O)c2ccc(Br)cc12` (centres unmarked) [Example 162], for which the IC50 is, setting by setting: (class column of Table 3) less than 10000 nM; (numeric column of Table 3) 455 nM.
Take `COCCOc1nn(CC(=O)Nc2ncc(F)cn2)c(=O)c2ccc(Br)cc12` [Example 163]: the IC50 is less than 10000 nM (class column of Table 3) and 3770 nM (numeric column of Table 3).
